The values that follow come from US10344279B2, “Methods for the prevention and the treatment of extracapillary glomerulonephritis” (INSERM (Institut National de la Sante et de la Recherche …, priority 2014, dated 2019).

One series relates to primary podocytes. The experiment in a line: Podocyte outgrowth (proliferation) assay from isolated decapsulated glomeruli. The settings on record: for podocyte outgrowth area / proliferation of cultured primary podocytes: Pod-Stat3 WT podocytes treated with Stattic, quantified at day 4. The class given is cell-based, mouse. As for the experimental part: Mouse kidneys were extracted, minced, and digested in 2 mg/mL collagenase I solution (Gibco) in RPMI 1640 (Invitrogen) at 37° C. for 3 minutes, then filtered through a 70-μm cell strainer and one more through a 40-μm cell strainer. The homogenate was centrifuged at 720 g for 6 minutes and cells plated. Isolated glomeruli were then collected in Phosphosafc extraction buffer (Novagen) for protein extraction or in RLT extraction buffer (Qiagen) for total RNA extraction. For podocyte primary culture, freshly isolated glomeruli were plated in 6-plate dishes in RPMI 1640 (Invitrogen) supplemented by 10% Fetal Calf Serum (Biowest) and 1% penicillin-streptomycin (Invitrogen). The outgrowth of podocytes started between days 2 and 3. Podocyte outgrowth area was quantified at day 4 using ImageJ software. After 4 days of primary culture, podocytes were trypsinized then plated into μ-Dish 35 mm high with Culture-Insert (Ibidi). Ibidi's wounding inserts were used for cell migration studies. The coverage of the 500-μm gap was assessed after 12 hours of culture and podocyte migration area was quantified using ImageJ software. The effects of HB-EGF (10 ng/mL, Preprotech) or AG1478 (1 μM, Calbiochem) or anti-mIL-6 monoclonal antibody MP5-20F3 (10 μg/mL, eBiosciences) or Stattic (2 μM, Calbiochem) on differentiated podocytes was applied during 16 hours. After stimulation, podocytes were scrapped in Phosphosafe buffer for protein extraction or in RLT buffer for total RNA extraction. […] Anti-miR-Control#1 was used as control (All from Ambion, 50 nM).

The subject of series [1] is Ki67 and PCNA mRNA expression in primary podocytes. The series is described as follows: RT-PCR of proliferation markers Ki67 and PCNA in primary podocyte cultures. The class given is cell-based, mouse. On the procedure:
After 4 days of primary culture, podocytes were trypsinized then plated into μ-Dish 35 mm high with Culture-Insert (Ibidi). Ibidi's wounding inserts were used for cell migration studies. The coverage of the 500-μm gap was assessed after 12 hours of culture and podocyte migration area was quantified using ImageJ software. The effects of HB-EGF (10 ng/mL, Preprotech) or AG1478 (1 μM, Calbiochem) or anti-mIL-6 monoclonal antibody MP5-20F3 (10 μg/mL, eBiosciences) or Stattic (2 μM, Calbiochem) on differentiated podocytes was applied during 16 hours. After stimulation, podocytes were scrapped in Phosphosafe buffer for protein extraction or in RLT buffer for total RNA extraction. Total RNA extraction of mice glomeruli was performed using an Rneasy Minikit (Qiagen) and reverse transcribed into cDNA using the Quantitect Reverse Transcription kit (Qiagen) according to the manufacturer's protocol. cDNA and standard were amplified in Maxima SYBR Green/Rox qPCR mix (Fermentas) on an ABI PRISM thermo cycler. The comparative method of relative quantification (2-ΔΔCT) was used to calculate the expression level of each target gene, normalized to GAPDH. The oligonucleotide sequences are available upon request. The data are presented as the fold change in gene expression. […] Anti-miR-Control#1 was used as control (All from Ambion, 50 nM).

The test system of another series is miR-92a. The experiment in a line: miR-92a expression in kidney / isolated glomeruli of NTS-challenged mice (in situ hybridization, RT-qPCR). The class given is in vivo. On the procedure: The glomerulonephritis was induced on male mice (10-12 weeks of age) by intravenous injection of 15 μL of sheep anti-glomerular basement membrane (GBM) nephrotoxic serum (NTS), which was diluted with 85 μL of sterile phosphate buffer solution. Serum injections were repeated twice (on days 2 and 3) at 6 μL/g of body weight and 7 μL/g respectively.
For miRNA expression analysis, RNA from kidney cortex were prepared with Trizol (Life Technologies) according to manufacturer's instructions. miRNA expression was determined using Taqman miRNA assay (Life technologies) according to manufacturer's protocols. U6 snRNA was used as endogenous control.
In situ hybridization was performed as previously described by Bonaucr et al (66). Briefly, 5 μm-thick kidney paraffin embedded sections were cut and fixed in PFA 4% for 10 min. Then sections were washed with 1× PBS and then acetylated for 10 min. After washes, sections were incubated with […] (Sigma-Aldrich) for 10 min. at 37° C. After washings, sections were incubated with hybridization buffer for 5 h at room temperature. miRNA probes (miR-92a probe double-DIG labeled LNA probes, Exiqon, final concentration 20 nM) was mixed with denaturation buffer and added to the sections followed by incubation over night at 56° C. U6snRNA probe (3′-DIG labeled LAN, probe, Exiqon) was used at 10 nM final concentration and as a positive control. […]
(In general: In qPCR the cycle at which signal appears reflects the starting amount.)

With `O=[N+]([O-])c1ccc2c(c1)S(=O)(=O)C=C2` [Stattic], the “podocyte outgrowth area / proliferation of cultured primary podocytes” value in the series with primary podocytes is “inhibited”. In the series with primary podocytes (listed as STAT3 inhibitor), the “podocyte outgrowth area / proliferation of cultured primary podocytes” value is “significantly reduced”. In addition, in series [1] (Stattic 2 μM for 16 hours), the “Ki67 expression in primary podocytes” value is reported as “markedly blunted” and the “PCNA expression in primary podocytes” value is listed as “markedly blunted”. Also, the “MicroRNA-92a expression in kidney” value in the series on miR-92a (NTS-challenged Pod-Stat3 WT animals treated with Stattic, in situ hybridization, confirmed by RT-qPCR) is “not increased”.

With “anti-miR-92a: 2′O-methylated, end-phosphorothioated antagomir with 3′ cholesterol-TEG, SEQ ID NO: 8, 5′-CAGGCCGGGACAAGUGCAAUA-3′ (VBC biotech) (listed as RNA, chemistry not fully specified)”, the podocyte outgrowth result in the series with primary podocytes (anti-miR-92a transfected (50 nM), over 4 days, vs control cells or anti-miR control) was “decrease”. For the same compound, the “Ki67 mRNA level” value in series [1] (anti-miR-92a transfected (50 nM) primary podocytes, vs control cells or anti-miR control) was “decrease”. Further, the “miR-92a expression in isolated glomeruli during RPGN” value with miR-92a (antagomiR 12 mg/kg i.v. retro-orbital, preventive strategy, 10 days after NTS) is on record as “specific inhibition”.
